Patent US20260216121A1, “3AH-CYCLOPENTA[B]BENZOFURAN-3A-YL AS RAS INHIBITORS” (SJP BIOTEC GMBH, priority 2023, published 2026)
Read-outs that look alike come from different tables or passages of the source.

Assays:
[1] = test system: HCT-116; assay: MTT assay for cell viability, HCT-116; assay type: cell-based; conditions: Homo sapiens, 48 h, mean from 3 independent experiments
Procedure: (§1) Cells with RAS mutations were treated with compounds 1 and C-1 for 48 h and cell viability was evaluated by MTT assay. The results shown are mean from 3 independent experiments.
(§2) HCT-116 were authenticated by Eurofin genomics and cultured in DMEM (10% heat inactivated FBS). sNF96.2 were purchased from ATCC and cultured in DMEM (10% heat inactivated FBS+1 mM Na Pyruvate). ASPC-1 cells were purchased from DSMZ and cultured in RPMI-1640 (10% heat inactivated FBS). NCI-H358 were purchased from ATCC and cultured in RPMI-1640 (10% heat inactivated FBS). T24 and HCT-116 cells were cultured in Mccoy's 5A medium (10% heat inactivated FBS). HT-1080 cells were cultured in EMEM (10% heat inactivated FBS+1 mM Na Pyruvate).
(§3) Cancer cells were seeded in 96 well plates (5×10^3 cells/well) in 80 μl in growth medium and cultured for 1 day in the incubator. Next day, 20 μl of compounds containing growth medium was added to each well and the cells were cultured for 48 h. After incubation with compounds, 10 μl of MTT solution was added to the wells and incubated for 2-4 hours. After incubation with MTT, solubilization buffer was added and incubated over night. MTT was measured at O.D. 570 nm with a plate reader (Tecan). IC50 calculations by non-linear regression were conducted with GraphPad Prism 9.

[2] = test system: T24; assay: MTT assay for cell viability, T24; assay type: cell-based; conditions: Homo sapiens, T-24, 48 h, mean from 3 independent experiments
Procedure: as §1, §2, §3

[3] = test system: ASPC1; assay: MTT assay for cell viability, ASPC1; assay type: cell-based; conditions: Homo sapiens, 48 h, mean from 3 independent experiments
Procedure: as §1, §2, §3

[4] = Unbound fraction in human plasma (equilibrium dialysis); assay type: in vitro ADME; conditions: pH 7.4, dialysis 4 hours at 37 °C
Excerpt: (§4) After administration, a certain amount of drug is in the blood or plasma. Of the total amount in the blood or plasma, some is bound to proteins (or other species in the blood or plasma). Only unbound drug is available e.g., for drug-target interactions. Therefore, the higher the unbound fraction that is available in the blood or plasma, the more is available for binding the drug to a target. The less unbound drug is available in the blood or plasma e.g., because it is involved in competitive binding to, for example, albumin, the less is available for desired drug-target interaction. The protocol for determining the unbound fraction and pharmacokinetics is routine practice and known to the skilled person.
HT-Dialysis plates (Model HTD 96 b, Cat #1006) and the dialysis membrane (molecular weight cut off 12-14 KDa, Cat #1101) were purchased from HT Dialysis LLC (Gales Ferry, CT).
Dialysis Buffer (100 mM sodium phosphate and 150 mM NaCl, pH 7.4±0.1)
Stop Solution (Acetonitrile containing tolbutamide at 200 ng/mL, labetalol at 200 ng/mL)
On the day of experiment, the plasma was thawed under running cold tap water and centrifuged at 3220×g for 5 min to remove any clots. The pH value was checked and recorded. […]
The dialysis membrane was pretreated according to the manufacturer's instructions: the dialysis membrane strips were soaked in ultra-pure water at room temperature for approximately 1 hr. Afterwards, each membrane strip that contains 2 membranes was separated and soaked in ethanol:water (20:80 v:v) for approximately 20 min, after which it was ready for use or was stored in the solution at 2-8° C. for up to 1 month. […]
The % Unbound, % Bound and % Recovery were calculated using the following equations:
[formula] […] [formula] • F=Free compound concentration as determined by the calculated concentration on the buffer side of the membrane • T=Total compound concentration as determined by the calculated concentration on the matrix side of the membrane • T0=Total compound concentration as determined by the calculated concentration in matrix before dialysis

[5] = biological target: T1, KRAS G12V (Homo sapiens, UniProt P01116, G12V); assay: NanoBiT assay for RAS GTP-loading (LgBit-KRAS G12V / SmBit-CRAF-RBD) in HeLa cells; assay type: cell-based
T1 construct: expressed in transfected cells; host or cells: HeLa
Procedure: (§5) NanoBiT assay for the RAS GTP-loading was performed in HeLa cells transfected with LgBit-K, N and HRAS G12V and SmBit-CRAF-RBD. Cells were treated with compounds 1 or C-1 for 2 h in serum-free DMEM (Dulbecco's modified Eagle's Medium). After incubation, the substrate for NanoLuc was added, and the luminescence was measured using a multiplate reader. Data were normalized to cells transfected with the indicated mutant and exposed to DMSO for 2 h. DMSO-treated cells were set as 1. The results shown are mean from 3 independent experiments.
(§6) HeLa cells were harvested with 0.05% Trypsin/0.02% EDTA in PBS and seeded in 6 well or 12 well cell culture plates at the concentration of 5×10^4 cells in complete DMEM (2 ml for 6 well plate and 1 ml for 12 well plate). After 1 day from seeding, the DNA were transfected with Flag tagged Ras or NanoBiT plasmid using PEI/PBS solution.
(§7) The plasmids were transfected to HeLa cells and the cells were harvested after 1 day of transfection. The cells were seeded to 96 well white plate. Next day, the medium was changed to serum free DMEM for 2 h with compounds. After incubation, Nano Glo assay was performed. The luminescence was measured using Tecan SPARKS (Tecan). IC50 calculations by non-linear regression were conducted with GraphPad Prism 9.

[6] = biological target: T2, NRAS G12V (Homo sapiens, UniProt P01111, G12V); assay: NanoBiT assay for RAS GTP-loading (LgBit-NRAS G12V / SmBit-CRAF-RBD) in HeLa cells; assay type: cell-based
T2 construct: expressed in transfected cells; host or cells: HeLa
Procedure: as §5, §6, §7

[7] = oral PK; assay type: in vivo; conditions: for AUC(0-inf) / Cmax / average free concentration at 24 h / half-life: in vivo; for average free concentration at 24 h: read-out: C average (nM) free; for half-life: read-out: T½ (converted)
Excerpt: as §4

[8] = iv (intravenous) PK; assay type: in vivo; conditions: for AUCinf(h*nM) Free / C average (nM) free / Cmax (nM), Free / AUC(0-inf) / Cmax / half-life: 2 mg/kg; for AUCinf(h*nM) Free / C average (nM) free / Cmax (nM), Free / half-life: i.v.; for Unbound clearance: Table 4, other values of the table equal the 2 mg/kg i.v. data; for AUC(0-inf) / Cmax / half-life: in vivo, iv; for half-life: read-out: T½ (converted)
Excerpt: as §4

[9] = test system: H358; assay: MTT assay for cell viability, H358; assay type: cell-based; conditions: Homo sapiens, NCI-H358, 48 h, mean from 3 independent experiments
Procedure: as §1, §2, §3

[10] = test system: HT-1080; assay: MTT assay for cell viability, HT-1080; assay type: cell-based; conditions: Homo sapiens, 48 h, mean from 3 independent experiments
Procedure: as §1, §2, §3

[11] = test system: sNF96.2; assay: MTT assay for cell viability, sNF96.2; assay type: cell-based; conditions: 48 h, mean from 3 independent experiments
Procedure: as §1, §2, §3

[12] = biological target: T3, HRAS G12V (Homo sapiens, UniProt P01112, G12V); assay: NanoBiT assay for RAS GTP-loading (LgBit-HRAS G12V / SmBit-CRAF-RBD) in HeLa cells; assay type: cell-based
T3 construct: expressed in transfected cells; host or cells: HeLa
Procedure: as §5, §6, §7

[13] = IC50 (nM, KRAS G12V), as listed in the PK tables 1-4, assay not named

T1 sequence (P01116 1-186 isoform P01116-2 G12V limits assumed): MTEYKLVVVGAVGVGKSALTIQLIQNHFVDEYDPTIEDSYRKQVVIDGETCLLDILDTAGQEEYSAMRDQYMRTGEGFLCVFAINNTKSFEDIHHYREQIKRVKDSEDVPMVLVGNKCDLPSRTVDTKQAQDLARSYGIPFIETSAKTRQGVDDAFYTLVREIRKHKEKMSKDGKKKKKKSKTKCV
T2 sequence (P01111 1-186 G12V limits assumed): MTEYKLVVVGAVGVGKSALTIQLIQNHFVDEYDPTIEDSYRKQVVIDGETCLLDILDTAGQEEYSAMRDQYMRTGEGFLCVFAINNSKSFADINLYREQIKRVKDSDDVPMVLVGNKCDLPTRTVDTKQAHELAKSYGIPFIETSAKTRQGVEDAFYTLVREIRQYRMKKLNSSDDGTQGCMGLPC
T3 sequence (P01112 1-186 G12V limits assumed): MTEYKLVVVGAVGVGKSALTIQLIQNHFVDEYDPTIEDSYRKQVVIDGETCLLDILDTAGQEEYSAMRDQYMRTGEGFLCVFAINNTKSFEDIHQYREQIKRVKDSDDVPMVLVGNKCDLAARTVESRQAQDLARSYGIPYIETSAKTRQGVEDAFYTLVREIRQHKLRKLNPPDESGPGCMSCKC

Structure (SMILES) | IC50 [1] [nM] | IC50 [2] [nM] | IC50 [3] [nM] | fraction unbound at 4 h, 2 µM [4] | IC50 [5, 13] [nM] | AUCinf(h*nM) Free ([7]; 50 mg/kg) [nM·h] | Cmax (nM), Free ([7]; 50 mg/kg) [nM] | AUC(0-inf) ([7]; 50 mg/kg) [µM·h] | Cmax ([7]; 50 mg/kg) [nM] | average free concentration at 24 h ([7]; 50 mg/kg) [nM] | half-life ([7]; 50 mg/kg) [h] | AUCinf(h*nM) Free [8] [nM·h] | C average (nM) free [8] [nM] | Cmax (nM), Free [8] [nM] | Unbound clearance [8] [L/h/kg] | AUC(0-inf) [8] [µM·h] | Cmax [8] [nM] | half-life [8] [h] | IC50 [9] [nM] | IC50 [10] [nM] | other results
COc1cc(OC)c2c(c1)O[C@@]1(c3ccc(C#N)cc3)[C@H](c3cccc(F)c3)C[C@@H](O)[C@@]21O (single isomer, unassigned) [Compound 1] | 8.99 | 13.2 | 11.9 | 0.026 | 8.5 | 378.6 | 105.3 | 14.6 | 4100 | 15.8 | 3.5 | 19.8 | 0.8 | 30.4 | 221 | 0.8 | 1200 | 0.9 | 15.6 | 5.39 | IC50 ([5]; IC50 (nM) KRAS G12V, NanoBiT, HeLa cells, 2 h in serum-free DMEM): 16.5 nM; IC50 [6]: 20.2 nM; IC50 [11]: 3.69 nM; IC50 [12]: 13.6 nM
COc1cc(OC)c2c(c1)O[C@@]1(c3ccc(C#N)cc3)[C@H](c3ccccc3)C[C@@H](O)[C@@]21O (single isomer, unassigned) [Compound 2] | – | – | – | 0.025 | 5.4 | – | – | – | – | – | – | 51.8 | 2.2 | 43.7 | 94.854 | 2.1 | 1700 | 4 | – | – | AUCinf(h*nM) Free ([7]; 10 mg/kg): 26.6 nM·h; Cmax (nM), Free ([7]; 10 mg/kg): 21.4 nM; AUC(0-inf) ([7]; 10 mg/kg): 1.1 µM·h; Cmax ([7]; 10 mg/kg): 900 nM; average free concentration at 24 h ([7]; 10 mg/kg): 1.1 nM; half-life ([7]; 10 mg/kg): 1.3 h
COc1cc(OC)c2c(c1)O[C@@]1(c3ccc(Cl)cc3)[C@H](c3ccccc3)C[C@@H](O)[C@@]21O [Compound C-1, (1R,3S,3aR,8bS)-3a-(4-chlorophenyl)-6,8-dimethoxy-3-phenyl-1,2,3,3a-tetrahydro-8bH-cyclopenta[b]benzofuran-1,8b-diol, reference compound] | 21.9 | 28.5 | 26.6 | 0.009 | – | 109.8 | 34.3 | 12.6 | 3900 | 4.6 | 2.7 | 7.9 | 0.3 | 14.5 | 581.38 | 0.9 | 1700 | 1.3 | 40 | 18 | IC50 ([5]; NanoBiT, HeLa cells, 2 h in serum-free DMEM, read-out: IC50 (nM) KRAS G12V): 56.6 nM; IC50 ([5]; as listed in the PK tables 1-4, assay not named, read-out: IC50 (nM, KRAS G12V)): 29 nM; IC50 ([6]; NanoBiT, HeLa cells, 2 h in serum-free DMEM, read-out: IC50 (nM) NRAS G12V): 61.4 nM; AUCinf(h*nM) Free ([7]; 10 mg/kg): 4.9 nM·h; Cmax (nM), Free ([7]; 10 mg/kg): 2.3 nM; AUC(0-inf) ([7]; 10 mg/kg): 0.6 µM·h; Cmax ([7]; 10 mg/kg): 300 nM; average free concentration at 24 h ([7]; 10 mg/kg): 0.2 nM; half-life ([7]; 10 mg/kg): 1.7 h; IC50 [11]: 7.22 nM; IC50 ([12]; NanoBiT, HeLa cells, 2 h in serum-free DMEM, read-out: IC50 (nM) HRAS G12V): 53.5 nM
